Patent US12319915B2, “Cytotoxic fluoropyrimidine polymers and methods of use thereof” (Wake Forest University Health Sciences, priority 2018, dated 2025)

Key:
HCC2998 = test: NCI60 cell line screen, HCC2998; type: cell-based; conditions: Homo sapiens, HCC 2998; HCC2998, NCI 60 cell line screen
SW620 = test: NCI60 cell line screen, SW620; type: cell-based; conditions: Homo sapiens, SW-620; SW620, NCI 60 cell line screen
HT-29 = test: NCI60 cell line screen, HT-29; type: cell-based; conditions: Homo sapiens; HT-29, NCI 60 cell line screen
[1] = cited from earlier work
HCT-116 = test: NCI60 cell line screen, HCT-116; type: cell-based; conditions: Homo sapiens; HCT-116, NCI 60 cell line screen
[2] = tested on: HCT-116-luc orthotopic xenografts
From the text: Orthotopic Colorectal Model. Protocol was followed per Tseng et al.'s previous study (Tseng W. et al., Vis Exp, 2007 (10): p. 484). A xenograft tumor was formed as described above using HCT116-luc cells. Once the tumor reached a size large enough for transplantation, mice were euthanized and tumor tissue was removed. The tumor was divided into 2-3 mm pieces and placed in PBS on ice. BALB/c mice were put under anesthesia, and the abdomen was prepped with a betadine solution. A laparotomy was performed in the abdomen and the cecum was exposed. The cecal wall was slightly damaged to allow cell invasion. A piece of tumor tissue was then attached to the outside of the cecum by a figure-8 stitch using a 9-O-nylon suture. The cecum is returned to the cavity and the abdomen wall is closed up using 6-0 coated vycryl sutures. A rectal thermometer monitored the internal temperature of the mice during surgery. Mouse recovery was monitored closely and mice were given Meloxicam every day for 3 days to alleviate pain along with normal saline to keep the mice hydrated. Tumor volume and cell progression was monitored using an IVIS live imaging system for evaluated total proton flux. […] CF10 was dosed 2×/week every week at 360 mg/kg (n=8 study 1; n=2 in study 2). All drugs, or vehicle (0.9% saline; n=8 study 1; n=6 study 2) were administered by i.p. injection in 200 μL volume.
Animal Imaging. Pierce D-Luciferin (Thermo Scientific) was injected subcutaneous using a 28-gauge needle 15 minutes before imaging. Mice were placed in an anesthesia chamber with 1.5% isoflurane and then transferred to the IVIS stage under 2% isoflurane using a nose cone placing the mice on their back. IVIS Lumina LT Series III machine was used for all mouse images. All images were analyzed at the end of the time experiment using the same Living Image software. A region of interest was placed on the mouse′ midsection and determined the total flux in that region. The region of interest remained identical for each mouse. Graphs were plotted as total flux per mouse for each week.
Statistical Analysis. All statistical analyses were conducted using SAS 9.4 using a mixed models approach. Baseline flux from IVIS imaging measurement, group, time and group-by-time interaction were included as fixed effects. The animals were included as random effects to account for the within animal correlation. Survival differences among treatment groups were determined using a log-rank test.
Histology Analysis. Tissues from select mice from all treatment groups were removed from animals after undergoing euthanasia by intra-cardiac administration of KCl solution. In some instances, mice were injected with luciferin ˜20 min prior to euthanasia and tissue extraction to permit IVIS imaging of extracted tissue. Tumors were weighed after removal and in instances where there was suspicion of possible metastases to liver, lung, or other organs tissue from these organs was removed and if luciferin was administered prior to euthanasia, these tissues were imaged using the IVIS system. All tissues were fixed in 10% neutral buffered formalin for 24 h followed by transfer to 70% ethanol. Following routine processing in xylene, tissues were sectioned at 4 μm and stained with Hematoxylin and Eosin and evaluated by light microscopy by a veterinary pathologist.

COLO205 = test: NCI60 cell line screen, COLO205; type: cell-based; conditions: Homo sapiens, COLO 205; COLO205, NCI 60 cell line screen
HCT-116 flank tumors = test: HCT-116 flank xenograft model; conditions: 5-FU 70 mg/kg i.p. 2× per week every other week
Experimental: Animal Model. […] All of the animal experiments were performed on six-to-eight-week-old female BALB/c mice.
Xenograft Model. HCT116 cells (3×10^6 cells) were suspended in ice-cold PBS and mixed 1:1 with Matrigel and subcutaneously injected into the flanks of Balb/nude mice. Tumor growth and mice health were monitored daily until the tumor reached a volume of 100-200 mm^3 (about two weeks). Tumor measurements were taken using electronic digital calipers twice a week, along with mouse weight. Tumor volume (V) was calculated as V=π/6 (L×W^2). 5-FU (70 mg/kg 2×/wk every other week) or CF10 (300 mg/kg) were dosed by intraperitoneal (i.p.) injection using a 28-gauge needle. Mice requiring removal from study due to large tumor burden or weight-loss were euthanized in accord with AVMA guidelines.

KM-12 = test: NCI60 cell line screen, KM-12; type: cell-based; conditions: Homo sapiens, KM12; KM-12, NCI 60 cell line screen
[3] = target: T1, thymidylate synthase (TS) (Homo sapiens, UniProt P04818); test: Thymidylate synthase activity in lysates of treated HCT116 cells; type: cell-based; conditions: HCT-116 cells, 100 nM
T1 construct: Cell lysate aliquots (400 μg of protein) were added to the reaction buffer; endogenous in cells; host or cells: HCT116 human colorectal cancer cells
T1 sequence (P04818 2-313 limits assumed): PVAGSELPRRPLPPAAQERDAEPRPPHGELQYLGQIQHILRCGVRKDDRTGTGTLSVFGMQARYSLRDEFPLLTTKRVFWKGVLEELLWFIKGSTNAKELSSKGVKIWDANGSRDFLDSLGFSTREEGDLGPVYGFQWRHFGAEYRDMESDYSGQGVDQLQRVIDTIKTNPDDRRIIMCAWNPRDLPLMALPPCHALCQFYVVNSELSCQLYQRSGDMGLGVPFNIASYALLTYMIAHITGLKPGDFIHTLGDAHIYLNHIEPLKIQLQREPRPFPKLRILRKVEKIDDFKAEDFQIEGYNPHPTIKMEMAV
Experimental: Thymidylate Synthase Activity. TS activity assays were performed using well-established procedures. HCT116 cells were plated at a density of 1.0-1.5×10^6 cells in […] plates. Cells were grown overnight in DMEM media with 10% FBS to allow the cells to adhere and begin to grow. Drugs were then added to the medium and the cells were incubated for the indicated time (24 h or 48 h). Cells were then harvested in 25 mM Tris-HCl, pH 7.4 with Complete Protease Inhibitor Cocktail present (as per instructed, Roche), put through two freeze/thaw cycles, and vigorously vortexed. The lysates were centrifuged at 10,000×g for 10 min at 4° C. The supernatants were assayed for protein concentration and TS catalytic activity. TS catalytic assays were performed in a final volume of 200 μL containing freshly prepared 75 μM 5,10 methylene tetrahydrofolate in 0.5 M NaOH (Schircks Laboratories, Switzerland), 10 μM dUMP, 200,000 dpm of 3H-dUMP (Moravek Biochemicals), 100 μM 2-mercaptoethanol, and 25 mM KH2PO4, pH 7.4. Cell lysate aliquots (400 μg of protein) were added to the reaction buffer and lysis buffer was used to adjust the final volume. The reaction mixture was incubated at 37° C. for 30 min, then stopped by addition of 100 μL of ice-cold, 20% TCA. Stopped reactions were maintained 5 min on ice. […] Reactions were then centrifuged, and aliquots of the supernatant were read by scintillation counting.

HCT-15 = test: NCI60 cell line screen, HCT-15; type: cell-based; conditions: Homo sapiens; HCT-15, NCI 60 cell line screen
HCT-116 cells = test: cells; conditions: Homo sapiens, HCT-116, 96 h, read-out: potency (cytotoxicity) to HCT-116 cells
From the text: Cell Lines and Drugs. HCT-116 human CRC cells were supplied by GRCF Biorepository & Cell Center (Johns Hopkins University). HCT116 cells were infected with UBC-GFPLuc-LV by the Cell and Viral Vector Laboratory at Wake Forest School of Medicine to generate luciferase-expressing HCT116-luc cells. These cells also express GFP. All human CRC cell lines were maintained in Dulbecco's Modified Eagle Medium (DMEM; Lonza, Switzerland) supplemented with 10% fetal bovine serum (FBS; Sigma, St. Louis, Missouri). Cell lines were cultured in conditions of 37° C. and 5% CO2 and were confirmed negative for mycoplasma.
Cell Culture. Cells were seeded in 96-well plates at the appropriate density in 200 μL medium and incubated for 37° C. overnight for cell attachment. […] Compounds were serially-diluted in either water or DMSO (final DMSO percentage<1%) to a stock concentration, and an equal amount of drug was added to the exponentially growing cells for each tested concentration. All drugs were filtered in 0.22 μm filter before use.
Cell Viability. CellTiter-Glo (Promega, Wisconsin) was used to determine cell viability. Assays were performed according to the manufacturer's instructions. Cell viability was normalized and calculated as a relative percentage of the averaged vehicle control.

O=c1[nH]cc(F)c(=O)[nH]1 [5-FU, 5-fluorouracil]
GI50 (HCC2998): 1510 nM
GI50 (SW620): 28.2 µM
GI50 (HT-29): 6.76 µM
half-life [1]: ~15 min
GI50 (HCT-116): 4.07 µM
primary tumor weight ([2]; 5-FU average at week 5, CF10 one mouse at week 8): 1.0 g
mice with putative metastatic tissue ([2]; autopsy at week 5): 2/4
tolerability ([2]; mouse, in vivo, ip, 100 mg/kg): toxic
effect on survival ([2]; orthotopic HCT-116-luc): no significant effect on survival
median survival ([2]; orthotopic HCT-116-luc, i.p.): 31 days
tumor growth (rate of change in flux, IVIS) ([2]; orthotopic HCT-116-luc, i.p.): decrease tumor growth relative to control
GI50 (COLO205): 6.92 µM
day post-treatment by which all mice required euthanasia (HCT-116 flank tumors): ≤ 16 days
weight loss (HCT-116 flank tumors; CF10 300 mg/kg i.p. 2×/week): greater weight loss than mice in the other treatment groups
GI50 (KM-12): 8.71 µM
TS enzymatic activity ([3]; 24 h): reduced TS activity
TS enzymatic activity ([3]; 48 h): ~75 % control values
GI50 (HCT-15): 5.62 µM
IC50 (HCT-116 cells): 21 µM
